Assay results from patent US20090093054A1, “CRYOPRESERVATION OF HUMAN BLASTOCYST-DERIVED STEM CELLS BY USE OF A CLOSED STRAW VITRIFICATION METHOD” (Cellartis AB, priority 2003, published 2009).
Several values for one entry are separate records, joined by “and”; a condition that tells them apart may be missing. Equal entries are not always repeated.

Tests used:
Human BS cell line SA121 = assay: Thawing recovery after closed straw vitrification and devitrification, cell line SA121; assay type: cell-based; conditions: for Thawing recovery, trehalose compared with sucrose: same molar concentration in vitrification and devitrification medium; for Thawing recovery: viable thawed colonies / hBS cell pieces originally vitrified, per individual closed straw, 48 h after seeding on MEF, sugar in vitrification and devitrification medium, same molar concentration for both; for Thawing recovery (SA121): viable colonies / pieces vitrified per closed straw, 48 h after seeding
Description: Two solutions A and B are prepared (Solution A: Sterile filtered 10% Ethylene glycol, 10% DMSO in Cryo-PBS; Solution B: Sterile filtered 0.3M Trehalose, 20% Ethylene glycol, 10% DMSO in Cryo-PBS) Selected colonies of human blastocyst-derived stem cells, which display proper morphology, are cut in the same way as when the cells are cut for regular passage using a stem cell cutting tool (Swemed Labs International, BilIdal, Sweden). The cell pieces should be about 0.1-0.4 mm×0.1-0.4 mm in size. The cell pieces are incubated first in 500 μl preheated (37° C.) Solution A for 1 min and then transferred to 25 μl Solution B and incubated for 30 s and then transferred again to a fresh drop of Solution B and incubated for 30 s. The volume is about 40-50 μl. About 10 cell pieces are aspirated into a straw prepared for vitrification and the straw is then closed with a bond. The straw is plunged into liquid nitrogen.
Two solutions C and D are prepared (Solution C: Sterile filtered 0.2M Trehalose in Cryo-PBS.; Solution D: Sterile filtered 0.1 M Trehalose in Cryo-PBS). Solutions C and D and hBS-medium are preheated at 37° C. A closed straw containing vitrified hBS cells (about 10 cell pieces) is removed from the liquid nitrogen tank. The straw is keep at room temperature for 10 s and then quickly thawed in a 40° C. water bath (within seconds). The straw is cut open in the plugged end using an autoclaved pair of scissors and the content pushed out from the straw into solution C using a syringe. The hBS cells are incubated for 1 min in 500 μl solution C and the transferred to 500 μl solution D and incubated for 5 min. Under a stero-microscope the hBS cell pieces are quickly rinsed in hBS medium and then seeded in a culture dish on top of mouse embryonic feeder cells in hBS medium. The cells are then cultured (incubated at 37° C.) and the number of established new colonies are counted and passaged in order to verify the viability of the hBS cells after vitrification. The recovery of viable cells following this vitrifying and thawing procedures is normally in the range of 70-100%.
Human BS cells (cell line SA121) were vitrified and thawed either following the procedure described in Example 1 & 2 or following the procedure described in Example 1 and 2 with the exception that trehalose was used in the vitrification and devitrification medium was replaced by sucrose in the same molar concentration as used for trehalose. Forty-eight hours after seeding in culture dishes on top of mouse embryonic feeder cells the hBS cell colonies were evaluated and counted. The thawing recovery was calculated as the ratio between the number of viable thawed colonies (displaying appropriate hBS cell morphology) and the number of hBS cell pieces originally vitrified. […]
Human BS cells (cell line SA121) were vitrified and thawed following the procedure described in Example 1 & 2 with the exception that trehalose was used in two different concentrations (0.3M and 0.5M) in the second vitrification solution (solution B). When 0.3 M trehalose was used in solution B, solution C contained 0.2 M trehalose and solution D contained 0.1 M trehalose. When 0.5 M trehalose was used in solution B, solution C contained 0.4 M trehalose and solution D contained 0.2 M trehalose. Forty-eight hours after seeding in culture dishes on top of mouse embryonic feeder cells the hBS cell colonies were evaluated and counted. The thawing recovery was calculated as the ratio between the number of viable thawed colonies (displaying appropriate hBS cell morphology) and the number of hBS cell pieces originally vitrified. Two separate experiments using two different human BS cell lines were performed. Three straws were prepared and evaluated per cell line and the results are presented below for each individual straw.

Human BS cell line SA002 = assay: Thawing recovery after closed straw vitrification and devitrification, cell line SA002; assay type: cell-based; conditions: viable colonies / pieces vitrified per closed straw, 48 h after seeding
[1] = 0.3M trehalose in solution B (C 0.2 M, D 0.1 M)
[2] = 0.5M trehalose in solution B (C 0.4 M, D 0.2 M)

SMILES | Thawing recovery, trehalose compared with sucrose (Human BS cell line SA121; result in words) | Thawing recovery (Human BS cell line SA121) | Thawing recovery (SA121) (Human BS cell line SA121; [1]) | Thawing recovery (SA121) (Human BS cell line SA121; [2]) | Thawing recovery, 0.5 M compared with 0.3 M trehalose in solution B (Human BS cell line SA121; cell lines SA121 and SA002, result in words) | Thawing recovery (SA002) (Human BS cell line SA002; [1]) | Thawing recovery (SA002) (Human BS cell line SA002; [2])
OC[C@H]1O[C@@](CO)(O[C@H]2O[C@H](CO)[C@@H](O)[C@H](O)[C@H]2O)[C@@H](O)[C@@H]1O [Sucrose] | no significant difference | 8/10 and 5/10 and 9/10 |  |  |  |  | 
OC[C@H]1O[C@H](O[C@H]2O[C@H](CO)[C@@H](O)[C@H](O)[C@H]2O)[C@H](O)[C@@H](O)[C@@H]1O [Trehalose] | no significant difference | 5/9 and 8/10 and 6/10 | 6/10 and 5/10 | 8/10 and 9/10 and 8/8 | seems to work better | 5/8 and 6/8 and 7/7 | 7/8 and 8/8 and 5/7
